The subject of data set [1] is human colorectal cancer HCT116 cells. As to the kind of experiment: Tumor growth, HCT116 xenograft in NOD/SCID mice. The class given is in vivo. The note with it: HCT116, 5 mg/Kg intraperitoneally every three days. As for the experimental part:
FIG. 6B: Tumor volume monitoring of HCT116 cells grown in NOD/SCID animals treated intraperitoneally either with a non-relevant compound which is DMSO (named VEH line with circle) or treated with the compound 33 (5 mg/kg—line with square) (Abscissa: Days from 0 to 62 in day; Ordinate: Tumor volume in mm^3 from 0 to 2500 (scale 500)).
(§1) Two different colorectal mouse models were used: a syngeneic model for which mouse colon cancer CT-26 cells were injected into Balb/c mice and a NOD/SCID model in which mice were implanted with human colorectal cancer HCT116 cells (FIG. 4 A-B). When the tumor reached a size of −2 mm, mice were treated intraperitoneally with the compound 33 at 5 mg/Kg (BALB/c n=11, NOD SCID n=6) or corn oil 5% DMSO (BALB/c n=10, NOD SCID n=6), every three days until the end of the experiment. The compound 33 was dissolved in DMSO, then diluted 20 times in corn oil (Sigma Aldrich-C8267) and sterilized by filtration with PTFE membrane Millex 0.2 μm (Millipore-SLFG025LS). Tumors were analyzed before reaching 2000 mm3. Treatment by compound 33 induces a decrease in tumor growth of 40% and 60% in the Balb/c and NOD mice, respectively (FIGS. 6A and 6B).

The next data set concerns HCT116 tumors. As to the kind of experiment: Immunofluorescence of cleaved caspase-3 in HCT116 tumor slides (NOD/SCID). The class given is in vivo, human. The note with it: NOD/SCID model. The protocol:
FIG. 7C: Immunofluorescence assay of Cleaved caspase-3 (C3C) in HCT116 from NOD mice tumors treated with VEH (column on the left) or with compound 33 (column on the right). […] (Ordinate: Caspase-3 cleaved relative fluorescence in percentage). Statistical analysis has been performed by ANOVA (***=p=0.0003). Scale bar=50 μm.
as §1

The test system of another data set is NFκB signaling pathway. As to the kind of experiment: Western blot of NFκB signaling and Myd88 in DLBCL cell lines. The note with it: for IkB phosphorylation (P-IKB): two DLBCL cell lines, 24 h of treatment. The class given is cell-based, human. The protocol:
FIG. 10B: Expression of HSP110 (first line), P-P65 (S276) (second line), P65 (third line), Myd88 (fourth line) and Actin (fifth line) in TMD8 human B cell lymphoma cell line (left part of FIG. 10B) or in HBL1 human diffuse large B-cell lymphoma cell line (right part of FIG. 10B), both cell lines being treated with Control (DMSO) and compound 33.
FIG. 10C: Expression, after 24 h of treatment, of HSP110 (first line), P-IKB (second line), IKB (third line) and Actin (fourth line) in TMD8 human B cell lymphoma cell line (right part of FIG. 10C) or in OCI-Ly3 human diffuse large B-cell lymphoma cell line (left part of FIG. 10C), both cell lines being treated with Control (DMSO), control compound 61, compound 52 and compound 33.
Background: In western blotting, separated proteins are transferred to a membrane and probed.

Data set [2] relates to DLBCL cell lines (HBL1, TMD8, U2932). As to the kind of experiment: Viability of B-cell lymphoma cell lines, combination with Ibrutinib. It counts as cell-based, human. The conditions noted are these: compound 33 at suboptimal 10 μM, Ibrutinib 0.01-100 nM. The protocol:
FIG. 12: Viability of various B-cell lymphoma cell lines treated with a suboptimal concentration of compound 33 (i) alone or (ii) in combination with increasing concentrations of Ibrutinib.
Groups of bars, from the left to the right of FIG. 12: (i) HBL1 human diffuse large B-cell lymphoma cell line not treated with compound 33 and treated with and increasing concentrations of Ibrutinib, (ii) HBL1 human diffuse large B-cell lymphoma cell line treated with 10 μM of compound 33 and increasing concentrations of Ibrutinib, (iii) TMD8 human B cell lymphoma cell line not treated with compound 33 and treated with and increasing concentrations of Ibrutinib, (iv) TMD8 human B cell lymphoma cell line treated with 10 μM of compound 33 and increasing concentrations of Ibrutinib, (v) U2932 human diffuse large B-cell lymphoma cell line not treated with compound 33 and treated with and increasing concentrations of Ibrutinib, and (vi). U2932 human diffuse large B-cell lymphoma cell line treated with 10 μM of compound 33 and increasing concentrations of Ibrutinib.
In each group of bars, form the left to the right: (i) Control (0 nM), without treatment with Ibrutinib, (ii) Ibrutinib at 0.01 nM, (iii) Ibrutinib at 0.1 nM, (iv) Ibrutinib at 1 nM, (v) Ibrutinib at 10 nM, (vi) Ibrutinib at 100 nM.

Data set [3] in a line: Body and spleen weights of mice during treatment. The note with it: immunodeficient mice, 10 or 20 mg/kg intraperitoneally. The class given is in vivo. The protocol: FIG. 11C: Body weight monitoring of Immunodeficient mice treated intraperitoneally with the compound 52 (=inhibitor 52) at 10 or 20 mg/kg or with vehicle at the same frequency. (Abscissa: Days from 0 to 20 in day; Ordinate: Body weight in g from 24 to 34 g (scale 2)).
FIG. 11D: Spleen weights monitoring of Immunodeficient mice treated intraperitoneally with the compound 52 (=inhibitor 52) at 10 or 20 mg/kg or with vehicle at the same frequency. (Abscissa: Treatments vehicle, 10 mg/kg or 20 mg/kg of compound 52; Ordinate: Spleen weight in mg from 20 to 100 mg (scale 20)).

“Also recorded” adds a separate entry of the source.

The values below come from patent publication US12070452B2, “Compounds targeting HSP110 protein for cancer treatment” (INSERM (Institut National de la Santé et de la Recherche …, priority 2018, dated 2024).

As for `COc1ccc(-c2ncc(-c3ncc(-c4cc(OC)c(OC)c(OC)c4)cc3/C=C/c3ccccc3)cc2C)cc1OC` [compound 33, (E)-6′-(3,4-Dimethoxyphenyl)-5′-methyl-3-styryl-5-(3,4,5-trimethoxyphenyl)-2,3′-bipyridine], the “decrease in tumor growth” value in data set [1] was 60%. Besides, in the data set with HCT116 tumors, the “tumor cell apoptosis (cleaved caspase-3 staining)” value is “increase in tumor cell apoptosis”. Also, in the data set with NFκB signaling pathway (TMD8 and HBL1 DLBCL cell lines), the Myd88 expression result is reported as “reduces” and the “NFκB signaling pathway (P-p65)” value was “reduces; also recorded: strong decrease”. Further, the “IkB phosphorylation (P-IKB)” value with NFκB signaling pathway is recorded as “decrease”. The “effect in combination with Ibrutinib on viability” value in data set [2] was “synergistic effect”.

Turning to `COc1cc(-c2cnc(-c3cnc(-c4cc(OC)c(OC)c(OC)c4)c(C)c3)c(/C=C/c3ccccc3)c2)cc(OC)c1OC` [compound 52, (E)-5′-Methyl-3-styryl-5,6′-bis(3,4,5-trimethoxyphenyl)-2,3′-bipyridine], the “NFκB signaling pathway (P-p65)” value in the data set with NFκB signaling pathway (TMD8 and HBL1 DLBCL cell lines) was “strong decrease”. Besides, in the data set on NFκB signaling pathway, the “IkB phosphorylation (P-IKB)” value is reported as “decrease”. For the same compound, the “toxicity (body and spleen weights)” value in data set [3] is given as “no toxicity”.
